System: hemoglobin-haptoglobin complex
Experiment: Stability of hemoglobin (as hemoglobin-haptoglobin complex) in samples preserved at 37° C. in preservation solution containing 1 unit/L haptoglobin, Hb measured by latex agglutination method (Examples 1 to 7)
Parameters: species or system human
Details: for Hb concentration / Recovery ratio with respect to Hb concentration after 0 days: 37° C.
Procedure: Preservation solutions were prepared with the addition of 40 mmol/L HEPES (pH 6.8), 0.1% BSA, 0.1% NaN3, 1 unit/L haptoglobin, and 0 to 100 mmol/L phenylboronic acid. Samples obtained by adding hemoglobin-added fecal specimens to the preservation solutions so that the fecal concentration would be 0.5% were preserved at 37° C. for 0, 7, 14, and 21 days. The fecal specimens were added with hemoglobin having an amount such that the hemoglobin concentration in the samples would be about 300 μg/L. Instead of the fecal specimens to which hemoglobin was added, samples containing no fecal specimens, in which hemoglobin was added to the preservation solutions so that the hemoglobin concentration in the samples would be 300 μg/L, were similarly preserved. The hemoglobin (Hb) concentrations (μg/L) in the preserved samples were measured by the latex agglutination method.
The concentrations of hemoglobin were measured using “OC-Hemodia (registered trademark) Auto III ‘EIKEN’” (available from EIKEN CHEMICAL CO., LTD.) as a measurement reagent and “OC-sensor DIANA” (available from EIKEN CHEMICAL CO., LTD.) as a measurement device. The above measurement reagent contains latex particles immobilizing an anti-human hemoglobin rabbit polyclonal antibody.
From the measured concentrations of hemoglobin, the recovery ratios (%) were calculated with respect to the hemoglobin concentrations immediately after the fecal specimens were added to the preservation solutions (i.e., concentrations 0 days after the fecal specimens were added).
(§1) For comparative examples, preservation solutions to which no arylboronic acid was added were prepared, and testing was conducted in the same manner.
(§2) The concentration of phenylboronic acid in the preservation solutions of Example 1 was fixed to 15 mmol/L, preservation solutions to which a sugar (sorbitol, sucrose, trehalose, glucose, fructose, or mannitol) was further added at 50 mmol/L or 100 mmol/L or preservation solutions to which no sugar was added were prepared, and testing was conducted in the same manner as in Example 1. For comparative examples, preservation solutions to which the phenylboronic acid and sugar were not added were prepared, and testing was conducted in the same manner.
Preservation solutions in which sorbitol, sucrose, trehalose, glucose, fructose, or mannitol was added at 100 mmol/L to the preservation solutions of Example 1 containing no phenylboronic acid were prepared, and testing was conducted in the same manner as in Example 1. For comparison, the same testing was conducted without adding these sugars.
as §2, with “sorbitol” for “a sugar (sorbitol, sucrose, trehalose, glucose, fructose, or mannitol)”, “was” for “was further”, “10 to 500” for “50”, “sucrose was added at 10 to 250” for “100”
as §1

[1] = Feces 1, sugar 50 mmol/L + phenylboronic acid 15 mmol/L, 0 days
[2] = Feces 1, sugar 50 mmol/L + phenylboronic acid 15 mmol/L, 7 days
[3] = Feces 1, sugar 50 mmol/L + phenylboronic acid 15 mmol/L, 14 days
[4] = Feces 1, sugar 50 mmol/L + phenylboronic acid 15 mmol/L, 21 days
[5] = Feces 1, sugar 100 mmol/L + phenylboronic acid 15 mmol/L, 0 days
[6] = Feces 1, sugar 100 mmol/L + phenylboronic acid 15 mmol/L, 7 days
[7] = Feces 1, sugar 100 mmol/L + phenylboronic acid 15 mmol/L, 14 days
[8] = Feces 1, sugar 100 mmol/L + phenylboronic acid 15 mmol/L, 21 days
[9] = Feces 1, sugar 100 mmol/L, no phenylboronic acid, 0 days
[10] = Feces 1, sugar 100 mmol/L, no phenylboronic acid, 7 days
[11] = Feces 1, sugar 100 mmol/L, no phenylboronic acid, 14 days
[12] = Feces 1, sugar 100 mmol/L, no phenylboronic acid, 21 days
[13] = Feces 2, sugar 50 mmol/L + phenylboronic acid 15 mmol/L, 0 days
[14] = Feces 2, sugar 50 mmol/L + phenylboronic acid 15 mmol/L, 7 days
[15] = Feces 2, sugar 50 mmol/L + phenylboronic acid 15 mmol/L, 14 days
[16] = Feces 2, sugar 50 mmol/L + phenylboronic acid 15 mmol/L, 21 days
[17] = Feces 2, sugar 100 mmol/L + phenylboronic acid 15 mmol/L, 0 days
[18] = Feces 2, sugar 100 mmol/L + phenylboronic acid 15 mmol/L, 7 days
[19] = Feces 2, sugar 100 mmol/L + phenylboronic acid 15 mmol/L, 14 days
[20] = Feces 2, sugar 100 mmol/L + phenylboronic acid 15 mmol/L, 21 days
[21] = Feces 2, sugar 100 mmol/L, no phenylboronic acid, 0 days
[22] = Feces 2, sugar 100 mmol/L, no phenylboronic acid, 7 days
[23] = Feces 2, sugar 100 mmol/L, no phenylboronic acid, 14 days
[24] = Feces 2, sugar 100 mmol/L, no phenylboronic acid, 21 days
[25] = Feces 3, sugar 50 mmol/L + phenylboronic acid 15 mmol/L, 0 days
[26] = Feces 3, sugar 50 mmol/L + phenylboronic acid 15 mmol/L, 7 days
[27] = Feces 3, sugar 50 mmol/L + phenylboronic acid 15 mmol/L, 14 days
[28] = Feces 3, sugar 50 mmol/L + phenylboronic acid 15 mmol/L, 21 days
[29] = Feces 3, sugar 100 mmol/L + phenylboronic acid 15 mmol/L, 0 days
[30] = Feces 3, sugar 100 mmol/L + phenylboronic acid 15 mmol/L, 7 days
[31] = Feces 3, sugar 100 mmol/L + phenylboronic acid 15 mmol/L, 14 days
[32] = Feces 3, sugar 100 mmol/L + phenylboronic acid 15 mmol/L, 21 days
[33] = Feces 3, sugar 100 mmol/L, no phenylboronic acid, 0 days
[34] = Feces 3, sugar 100 mmol/L, no phenylboronic acid, 7 days
[35] = Feces 3, sugar 100 mmol/L, no phenylboronic acid, 14 days
[36] = Feces 3, sugar 100 mmol/L, no phenylboronic acid, 21 days
[37] = No feces, sugar 50 mmol/L + phenylboronic acid 15 mmol/L, 0 days
[38] = No feces, sugar 50 mmol/L + phenylboronic acid 15 mmol/L, 7 days
[39] = No feces, sugar 50 mmol/L + phenylboronic acid 15 mmol/L, 14 days
[40] = No feces, sugar 50 mmol/L + phenylboronic acid 15 mmol/L, 21 days
[41] = No feces, sugar 100 mmol/L + phenylboronic acid 15 mmol/L, 7 days
[42] = No feces, sugar 100 mmol/L + phenylboronic acid 15 mmol/L, 14 days
[43] = No feces, sugar 100 mmol/L + phenylboronic acid 15 mmol/L, 21 days
[44] = No feces, sugar 100 mmol/L, no phenylboronic acid, 0 days
[45] = No feces, sugar 100 mmol/L, no phenylboronic acid, 7 days
[46] = No feces, sugar 100 mmol/L, no phenylboronic acid, 14 days
[47] = No feces, sugar 100 mmol/L, no phenylboronic acid, 21 days

O=C(CO)[C@@H](O)[C@H](O)[C@H](O)CO [Fructose, fructose]
Hb concentration [1]: 297 µg/L | Recovery ratio with respect to Hb concentration after 0 days [1]: 100% | Hb concentration [2]: 294 µg/L | Recovery ratio with respect to Hb concentration after 0 days [2]: 99% | Hb concentration [3]: 285 µg/L | Recovery ratio with respect to Hb concentration after 0 days [3]: 96% | Hb concentration [4]: 280 µg/L | Recovery ratio with respect to Hb concentration after 0 days [4]: 94% | Hb concentration [5]: 287 µg/L | Recovery ratio with respect to Hb concentration after 0 days [5]: 100% | Hb concentration [6]: 276 µg/L | Recovery ratio with respect to Hb concentration after 0 days [6]: 96% | Hb concentration [7]: 247 µg/L | Recovery ratio with respect to Hb concentration after 0 days [7]: 86% | Hb concentration [8]: 228 µg/L | Recovery ratio with respect to Hb concentration after 0 days [8]: 79% | Hb concentration [9]: 285 µg/L | Recovery ratio with respect to Hb concentration after 0 days [9]: 100% | Hb concentration [10]: 127 µg/L | Recovery ratio with respect to Hb concentration after 0 days [10]: 45% | Hb concentration [11]: 85 µg/L | Recovery ratio with respect to Hb concentration after 0 days [11]: 30% | Hb concentration [12]: 81 µg/L | Recovery ratio with respect to Hb concentration after 0 days [12]: 28% | Hb concentration [13]: 270 µg/L | Recovery ratio with respect to Hb concentration after 0 days [13]: 100% | Hb concentration [14]: 275 µg/L | Recovery ratio with respect to Hb concentration after 0 days [14]: 102% | Hb concentration [15]: 243 µg/L | Recovery ratio with respect to Hb concentration after 0 days [15]: 90% | Hb concentration [16]: 222 µg/L | Recovery ratio with respect to Hb concentration after 0 days [16]: 82% | Hb concentration [17]: 280 µg/L | Recovery ratio with respect to Hb concentration after 0 days [17]: 100% | Hb concentration [18]: 264 µg/L | Recovery ratio with respect to Hb concentration after 0 days [18]: 94% | Hb concentration [19]: 235 µg/L | Recovery ratio with respect to Hb concentration after 0 days [19]: 84% | Hb concentration [20]: 212 µg/L | Recovery ratio with respect to Hb concentration after 0 days [20]: 76% | Hb concentration [21]: 273 µg/L | Recovery ratio with respect to Hb concentration after 0 days [21]: 100% | Hb concentration [22]: 100 µg/L | Recovery ratio with respect to Hb concentration after 0 days [22]: 37% | Hb concentration [23]: 56 µg/L | Recovery ratio with respect to Hb concentration after 0 days [23]: 21% | Hb concentration [24]: 35 µg/L | Recovery ratio with respect to Hb concentration after 0 days [24]: 13% | Hb concentration [25]: 272 µg/L | Recovery ratio with respect to Hb concentration after 0 days [25]: 100% | Hb concentration [26]: 238 µg/L | Recovery ratio with respect to Hb concentration after 0 days [26]: 88% | Hb concentration [27]: 218 µg/L | Recovery ratio with respect to Hb concentration after 0 days [27]: 80% | Hb concentration [28]: 203 µg/L | Recovery ratio with respect to Hb concentration after 0 days [28]: 75% | Hb concentration [29]: 276 µg/L | Recovery ratio with respect to Hb concentration after 0 days [29]: 100% | Hb concentration [30]: 244 µg/L | Recovery ratio with respect to Hb concentration after 0 days [30]: 88% | Hb concentration [31]: 222 µg/L | Recovery ratio with respect to Hb concentration after 0 days [31]: 80% | Hb concentration [32]: 204 µg/L | Recovery ratio with respect to Hb concentration after 0 days [32]: 74% | Hb concentration [33]: 265 µg/L | Recovery ratio with respect to Hb concentration after 0 days [33]: 100% | Hb concentration [34]: 83 µg/L | Recovery ratio with respect to Hb concentration after 0 days [34]: 31% | Hb concentration [35]: 41 µg/L | Recovery ratio with respect to Hb concentration after 0 days [35]: 15% | Hb concentration [36]: 39 µg/L | Recovery ratio with respect to Hb concentration after 0 days [36]: 15% | Hb concentration [37]: 286 µg/L | Recovery ratio with respect to Hb concentration after 0 days [37]: 100% | Hb concentration [38]: 255 µg/L | Recovery ratio with respect to Hb concentration after 0 days [38]: 89% | Hb concentration [39]: 261 µg/L | Recovery ratio with respect to Hb concentration after 0 days [39]: 91% | Hb concentration [40]: 275 µg/L | Recovery ratio with respect to Hb concentration after 0 days [40]: 96% | Recovery ratio with respect to Hb concentration after 0 days (No feces, sugar 100 mmol/L + phenylboronic acid 15 mmol/L, 0 days): 100% | Hb concentration [41]: 245 µg/L | Recovery ratio with respect to Hb concentration after 0 days [41]: 87% | Hb concentration [42]: 251 µg/L | Recovery ratio with respect to Hb concentration after 0 days [42]: 89% | Hb concentration [43]: 262 µg/L | Recovery ratio with respect to Hb concentration after 0 days [43]: 93% | Hb concentration [44]: 250 µg/L | Recovery ratio with respect to Hb concentration after 0 days [44]: 100% | Hb concentration [45]: 215 µg/L | Recovery ratio with respect to Hb concentration after 0 days [45]: 86% | Hb concentration [46]: 196 µg/L | Recovery ratio with respect to Hb concentration after 0 days [46]: 78% | Hb concentration [47]: 177 µg/L | Recovery ratio with respect to Hb concentration after 0 days [47]: 71% | recovery ratio of hemoglobin in the samples containing fecal specimens (sugar 100 mmol/L, preservation solutions containing no phenylboronic acid): does not improve | recovery ratio of hemoglobin in the sample (sugar 50 or 100 mmol/L further added to phenylboronic acid 15 mmol/L, Feces 1, Feces 2, Feces 3): further improved

Source: US12215140B2, “Method of stabilizing protein contained in specimen and solution for stabilizing protein contained in specimen” (EIKEN KAGAKU KABUSHIKI KAISHA, priority 2018, dated 2025)
